Where two headings read alike, the source gives them in different places.
Assays:
Assay type in all cases: biochemical
[1] = biological target: T1, JAK1 (aa 850-1154, catalytic domain, GST-tag) (Homo sapiens, UniProt P23458); assay: JAK kinase assay (HTRF, phosphorylation of TK substrate-biotin), JAK1; details: ATP at Km (7 μM)
T1 construct: JAK1 (aa 850-1154) and TYK2 (aa 871-1187) are expressed with an N-terminally fused GST-tag; GST (N); purchased Carna Biosciences, Inc; host or cells: baculovirus expression system
T1 sequence (P23458 850-1154): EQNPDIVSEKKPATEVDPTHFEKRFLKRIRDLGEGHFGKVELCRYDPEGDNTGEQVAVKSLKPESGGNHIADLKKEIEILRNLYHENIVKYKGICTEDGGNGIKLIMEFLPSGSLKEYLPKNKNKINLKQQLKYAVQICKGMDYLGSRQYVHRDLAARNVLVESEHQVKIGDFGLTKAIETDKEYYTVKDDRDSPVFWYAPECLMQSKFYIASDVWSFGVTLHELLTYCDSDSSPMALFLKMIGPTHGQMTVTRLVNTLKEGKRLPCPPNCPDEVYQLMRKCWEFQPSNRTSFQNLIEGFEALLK
Method in brief: (§1)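 EC50 values come from HTRF detection of phospho-biotin-TK peptide (1 μM) after 20-30 min RT reactions in Hepes pH 7.0 buffer with 0.75% DMSO. ATP was at Km for each enzyme: 7 μM JAK1, 4 μM JAK2, 2 μM JAK3, 13 μM TYK2. SEB (50 nM) was added for JAK1 and TYK2 only.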

[2] = biological target: T2, JAK3 (catalytic domain, His-tag) (Homo sapiens, UniProt P52333); assay: JAK kinase assay (HTRF, phosphorylation of TK substrate-biotin), JAK3; details: ATP at Km (2 μM)
T2 construct: All four purified enzymes contain only the catalytic domain; His (N); purchased Carna Biosciences, Inc; host or cells: baculovirus expression system
T2 sequence (P52333 822-1111 limits assumed): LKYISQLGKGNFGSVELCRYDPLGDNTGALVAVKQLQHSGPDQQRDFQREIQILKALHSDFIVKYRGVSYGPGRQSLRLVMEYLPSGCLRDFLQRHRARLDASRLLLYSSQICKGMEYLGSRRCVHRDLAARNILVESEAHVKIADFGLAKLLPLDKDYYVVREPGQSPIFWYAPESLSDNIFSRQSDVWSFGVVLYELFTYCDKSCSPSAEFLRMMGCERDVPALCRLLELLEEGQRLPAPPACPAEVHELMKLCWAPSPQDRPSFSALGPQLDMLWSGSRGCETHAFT
Method in brief: as §1

[3] = biological target: T3, JAK2 (catalytic domain, His-tag) (Homo sapiens, UniProt O60674); assay: JAK kinase assay (HTRF, phosphorylation of TK substrate-biotin), JAK2; details: ATP at Km (4 μM)
T3 construct: All four purified enzymes contain only the catalytic domain; His (N); purchased Carna Biosciences, Inc; host or cells: baculovirus expression system
T3 sequence (O60674 849-1124 limits assumed): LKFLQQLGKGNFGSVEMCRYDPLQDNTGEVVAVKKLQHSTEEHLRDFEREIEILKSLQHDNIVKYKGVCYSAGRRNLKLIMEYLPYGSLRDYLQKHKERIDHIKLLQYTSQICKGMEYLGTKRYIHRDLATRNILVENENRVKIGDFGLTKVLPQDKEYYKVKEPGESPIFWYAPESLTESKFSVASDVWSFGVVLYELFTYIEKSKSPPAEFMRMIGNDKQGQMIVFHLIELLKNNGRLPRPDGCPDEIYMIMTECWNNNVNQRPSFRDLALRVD
Method in brief: as §1

[4] = biological target: T4, TYK2 (aa 871-1187, catalytic domain, GST-tag) (Homo sapiens, UniProt P29597); assay: JAK kinase assay (HTRF, phosphorylation of TK substrate-biotin), TYK2; details: ATP at Km (13 μM)
T4 construct: JAK1 (aa 850-1154) and TYK2 (aa 871-1187) are expressed with an N-terminally fused GST-tag; GST (N); purchased Carna Biosciences, Inc; host or cells: baculovirus expression system
T4 sequence (P29597 871-1187): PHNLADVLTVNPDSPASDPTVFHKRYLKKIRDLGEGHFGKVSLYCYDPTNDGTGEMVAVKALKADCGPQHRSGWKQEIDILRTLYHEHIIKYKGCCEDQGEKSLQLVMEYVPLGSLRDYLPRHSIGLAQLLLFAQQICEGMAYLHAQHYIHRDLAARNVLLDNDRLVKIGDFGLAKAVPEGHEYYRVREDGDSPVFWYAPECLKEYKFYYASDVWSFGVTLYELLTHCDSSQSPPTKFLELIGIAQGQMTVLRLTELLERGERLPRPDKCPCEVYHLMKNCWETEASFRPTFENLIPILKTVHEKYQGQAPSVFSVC
Method in brief: as §1

[5] = HTRF assay, read-out: JAK1 kinase inhibitory activity (EC50 indicator)
[6] = HTRF assay, read-out: JAK3 kinase inhibitory activity (EC50 indicator)
[7] = HTRF assay, read-out: JAK2 kinase inhibitory activity (EC50 indicator)
[8] = HTRF assay, read-out: TYK2 kinase inhibitory activity (EC50 indicator)
[9] = HTRF assay, read-out: JAK1 kinase inhibitory activity (EC50)
[10] = HTRF assay, read-out: JAK3 kinase inhibitory activity (EC50)
[11] = HTRF assay, read-out: JAK2 kinase inhibitory activity (EC50)
[12] = HTRF assay, read-out: TYK2 kinase inhibitory activity (EC50)
[13] = read-out: JAK1 kinase inhibitory activity (EC50 indicator)
[14] = read-out: JAK3 kinase inhibitory activity (EC50 indicator)
[15] = read-out: JAK2 kinase inhibitory activity (EC50 indicator)
[16] = read-out: TYK2 kinase inhibitory activity (EC50 indicator)

Compound	EC50 [1, 5] [nM]	EC50 [2, 6] [nM]	EC50 [3, 7] [nM]	EC50 [4, 8] [nM]	EC50 [1, 13] [nM]	EC50 [2, 14] [nM]	EC50 [3, 15] [nM]	EC50 [4, 16] [nM]	further results
Cc1c[nH]c2ncnc(N3CCN(C(=O)C4(C#N)CC4)C4(CC4)C3)c12 [Example 329, 1-[7-(5-Methyl-7H-pyrrolo[2,3-d]pyrimidin-4-yl)-4,7-diaza-spiro[2.5]octane-4-carbonyl]-cyclopropanecarbonitrile]	> 500	> 500	> 500	> 500	–	–	–	–	–
O=C(NCCc1ccccc1)N1CCN(c2ncnc3[nH]ccc23)CC12CC2 [Example 445, 7-(7H-Pyrrolo[2,3-d]pyrimidin-4-yl)-4,7-diaza-spiro[2.5]octane-4-carboxylic acid phenethyl-amide]	–	–	–	–	–	–	–	–	EC50 [1, 9]: < 100 nM; EC50 [2, 10]: 100 to 500 nM; EC50 [3, 11]: < 100 nM; EC50 [4, 12]: > 500 nM
O=C(N1CCN(c2ncnc3[nH]ccc23)CC12CC2)C1(c2ccccc2)CC1 [Example 154, (1-Phenyl-cyclopropyl)-[7-(7H-pyrrolo[2,3-d]pyrimidin-4-yl)-4,7-diaza-spiro[2.5]oct-4-yl]-methanone]	–	–	–	–	100 to 500	> 500	< 100	> 500	–
O=C(Cc1cccs1)N1CCN(c2ncnc3[nH]ccc23)CC12CC2 [Example 190, 1-[7-(7H-Pyrrolo[2,3-d]pyrimidin-4-yl)-4,7-diaza-spiro[2.5]oct-4-yl]-2-thiophen-2-yl-ethanone]	–	–	–	–	< 100	< 100	< 100	100 to 500	–
N#CC1(C(=O)N2CCN(c3ccnc4[nH]ccc34)CC23CC3)CC1 [Example 117, 1-[7-(1H-Pyrrolo[2,3-b]pyridin-4-yl)-4,7-diaza-spiro[2.5]octane-4-carbonyl]-cyclopropanecarbonitrile]	–	–	–	–	100 to 500	100 to 500	100 to 500	> 500	–
O=C(c1c[nH]c2ccccc12)N1CCN(c2ncnc3[nH]ccc23)CC12CC2 [Example 16, (1H-Indol-3-yl)-[7-(7H-pyrrolo[2,3-d]pyrimidin-4-yl)-4,7-diazaspiro[2.5]oct-4-yl]methanone]	–	–	–	–	< 100	< 100	< 100	100 to 500	–
O=C(Cc1c[nH]c2ccccc12)N1CCN(c2ncnc3[nH]ccc23)CC12CC2 [Example 14, 2-(1H-Indol-3-yl)-1-[7-(7H-pyrrolo[2,3-d]pyrimidin-4-yl)-4,7-diazaspiro[2.5]oct-4-yl]ethanone]	–	–	–	–	100 to 500	100 to 500	< 100	> 500	–
O=C([C@H]1CCCc2ccccc21)N1CCN(c2ncnc3[nH]ccc23)CC12CC2 [Example 416, [7-(7H-Pyrrolo[2,3-d]pyrimidin-4-yl)-4,7-diaza-spiro[2.5]oct-4-yl]-(1,2,3,4-tetrahydro-naphthalen-1-yl)-methanone]	100 to 500	100 to 500	< 100	> 500	–	–	–	–	–
N#Cc1ccc(C(=O)N2[C@@H]3CC[C@@H]2CN(c2ncnc4[nH]ccc24)C3)cc1F [Example 350, 2-Fluoro-4-[3-(7H-pyrrolo[2,3-d]pyrimidin-4-yl)-3,8-diaza-bicyclo[3.2.1]octane-8-carbonyl]-benzonitrile]	< 100	< 100	< 100	100 to 500	–	–	–	–	–
O=C(c1ccc(S(=O)(=O)NCc2cccs2)cc1)N1CCN(c2ncnc3[nH]ccc23)CC12CC2 [Example 204, 4-[7-(7H-Pyrrolo[2,3-d]pyrimidin-4-yl)-4,7-diaza-spiro[2.5]octane-4-carbonyl]-N-thiophen-2-ylmethyl-benzenesulfonamide]	–	–	–	–	< 100	< 100	< 100	100 to 500	–
O=C(c1cccnc1)N1CCN(c2ccnc3[nH]ccc23)CC12CC2 [Example 223, Pyridin-3-yl-[7-(1H-pyrrolo[2,3-b]pyridin-4-yl)-4,7-diaza-spiro[2.5]oct-4-yl]-methanone]	100 to 500	> 500	100 to 500	> 500	–	–	–	–	–
CC(=O)NCC(=O)N1CCN(c2ncnc3[nH]ccc23)CC12CC2 [Example 151, N-{2-Oxo-2-[7-(7H-pyrrolo[2,3-d]pyrimidin-4-yl)-4,7-diaza-spiro[2.5]oct-4-yl]-ethyl}-acetamide]	–	–	–	–	100 to 500	> 500	100 to 500	> 500	–
NS(=O)(=O)c1cnn(CCC(=O)N2CCN(c3ncnc4[nH]ccc34)CC23CC3)c1 [Example 435, 1-{3-Oxo-3-[7-(7H-pyrrolo[2,3-d]pyrimidin-4-yl)-4,7-diaza-spiro[2.5]oct-4-yl]-propyl}-1H-pyrazole-4-sulfonic acid amide]	–	–	–	–	–	–	–	–	EC50 [1, 9]: < 100 nM; EC50 [2, 10]: < 100 nM; EC50 [3, 11]: < 100 nM; EC50 [4, 12]: 100 to 500 nM
N#CCCCS(=O)(=O)c1ccc(C(=O)N2CCN(c3ncnc4[nH]ccc34)CC23CC3)cc1 [Example 408, 4-{4-[7-(7H-Pyrrolo[2,3-d]pyrimidin-4-yl)-4,7-diaza-spiro[2.5]octane-4-carbonyl]-benzenesulfonyl}-butyronitrile]	< 100	> 500	< 100	> 500	–	–	–	–	–
O=C(Cc1c[nH]c2ccccc12)N1[C@@H]2CC[C@@H]1CN(c1ncnc3[nH]ccc13)C2 [Example 170, 2-(1H-Indol-3-yl)-1-[3-(7H-pyrrolo[2,3-d]pyrimidin-4-yl)-3,8-diaza-bicyclo[3.2.1]oct-8-yl]-ethanone]	–	–	–	–	100 to 500	100 to 500	100 to 500	> 500	–
O=C(Cc1ccc(C(F)(F)F)cc1)N1[C@@H]2CC[C@@H]1CN(c1ncnc3[nH]ccc13)C2 [Example 349, 1-[3-(7H-Pyrrolo[2,3-d]pyrimidin-4-yl)-3,8-diaza-bicyclo[3.2.1]oct-8-yl]-2-(4-trifluoromethyl-phenyl)-ethanone]	100 to 500	100 to 500	100 to 500	> 500	–	–	–	–	–
Cc1nccnc1C(=O)N1[C@@H]2CC[C@H]1CN(c1ncnc3[nH]ccc13)C2 [Example 72, (3-Methyl-pyrazin-2-yl)-[3-(7H-pyrrolo[2,3-d]pyrimidin-4-yl)-3,8-diaza-bicyclo[3.2.1]oct-8-yl]-methanone]	–	–	–	–	100 to 500	100 to 500	< 100	> 500	–
CC1CN(C(=O)Cc2ccc(C#N)cc2)C2(CC2)CN1c1ncnc2[nH]ccc12 (centres unmarked) [Example 147, 4-{2-[6-Methyl-7-(7H-pyrrolo[2,3-d]pyrimidin-4-yl)-4,7-diaza-spiro[2.5]oct-4-yl]-2-oxo-ethyl}-benzonitrile]	–	–	–	–	< 100	< 100	< 100	< 100	–
N#Cc1cccc(C(=O)N2CCN(c3ncnc4[nH]ccc34)CC23CC3)c1 [Example 44, 3-[7-(7H-Pyrrolo[2,3-d]pyrimidin-4-yl)-4,7-diazaspiro[2.5]octane-4-carbonyl]benzonitrile]	–	–	–	–	< 100	< 100	< 100	< 100	–
N#Cc1cccc(CS(=O)(=O)N2[C@@H]3CC[C@H]2CN(c2ncnc4[nH]ccc24)C3)c1 [Example 77, 3-[3-(7H-Pyrrolo[2,3-d]pyrimidin-4-yl)-3,8-diaza-bicyclo[3.2.1]octane-8-sulfonylmethyl]-benzonitrile]	–	–	–	–	< 100	100 to 500	< 100	> 500	–
